Marks after values point to notes of the source that are not given here.
How the values were obtained:
Sprague-Dawley rats = assay: Activity monitor (locomotor activity); format: in vivo, rat; conditions: 10 mg/kg intraperitoneal, thirty minutes after injection
Procedure: Locomotor activity of male Sprague-Dawley rats (Charles River, Wilmington, Mass.) weighing approximately 300 grams was measured thirty minutes following intraperitoneal injection of vehicle or test compound. Test animals were placed in a dark chamber and a Digicom analyzer (Omnitech Electronic, Columbus, Ohio), which records the number of interruptions of an array of 32 photoelectric beams in the X and Y orientation, quantitated exploratory behavior during a five-minute period. Horizonal activity (HD) and total distance (TD) are presented, as well as % vehicle values. * indicates significant difference (P<0.05) relative to vehicle-treated rats.

[1] = system: phenylephrine-induced allodynia in mice; assay: Phenylephrine model of transient allodynia; format: in vivo; conditions: maximum score 16
Procedure: (§1) In mice, it is possible to induce transient allodynia by treating mice with chemical sensitizers. An interperitoneal injection (of a 1 ml/kg volume) of phenylephrine (an alphal receptor agonist) or sulprostone (a EP1 and EP3 prostaglandin receptor agonist) will induce transient allodynia. Alternatively, an intrathecal injection of NMDA (in a 5 ul volume) will also induce transient allodynia. The injected mice are assessed for allodynia once every 5 minutes over a 15-50 min period post injection by light stroking of the flank with a paintbrush. The allodynia response was ranked as follows: 0. No response; 1, mild squeaking with attempts to move away from the paintbrush; 2, vigorous squeaking, biting at the paintbrush and strong efforts to escape. Data is expressed as the average total score for each group. (Each animal can have a maximum score of 16 over the 50-min period.) * indicates significant difference (P<0.05) relative to sulprostone, NMDA or phenylephrine-treated rats.

rats = assay: Rotarod motor performance; format: in vivo, rat; conditions: fifteen minutes post-dosing, acceleration mode 5-15 RPM, in s (unit assumed)
Text: The Rotamex® 4/8 Rota-rod is a device to test the motor performance decrement, performance time, partial or complete ataxia, and the motor coordination in laboratory animals. The principle of this system is to measure the time each animal manages to maintain walking on the moving rod. Drugs or conditions that cause muscular relaxation will interfere with this coordination and agility, causing the animal to fall from a safe height to a grid below.
The animals were conditioned before performing the test. Animals were required to pass three stages of conditioning on the Rota-rod prior to inclusion in the experiment. During the first stage of conditioning, animals were required to perch on the stationary rod for 30 seconds to accustom themselves to the environment.
Rats that fail to perch for 30 seconds will fall to the grid below. The fall alone typically serves as an adequate aversive stimulus and the animals learn to stay on the perch.
In the second stage of conditioning, the animals that passed the first stage of conditioning were then allowed to walk at a constant speed of 5-rpm for 90 seconds. Any animal that fell off the rod during this trial were allowed to fall to the grid below. Animals are required to stay on the rod for 90 seconds in three consecutive trials out of six total trials, or else they were excluded from the study.
In the final stage of conditioning, about 10-30 minutes after the last trial for each animal that passed the first two stages of conditioning, the animals were placed back on the rod in groups of four and allowed to run in an acceleration mode with a start speed of 5 rpm and an end speed of 15 rpm for 90 seconds. […] A mean performance time was calculated for all animals that managed to stay on the rotating rod for at least 80 seconds. […] Mean performance times were calculated and used as pre-drug baseline values. […] Fifteen minutes post-dosing, the animals were placed back on the rod and the mean performance time in acceleration mode (5-15 RPM) is measured again. […]

[2] = system: sulprostone-induced allodynia in mice; assay: Sulprostone model of transient allodynia; format: in vivo
Procedure: as §1

[3] = system: capsaicin-induced allodynia in Sprague-Dawley rats; assay: Capsaicin model, tactile allodynia (von Frey filament); format: in vivo, rat
Procedure: Intraplantar injection of capsaicin, the active ingredient in red hot chili peppers, will induce neurogenic inflammation and transient allodynia.
Methods/subjects: Eight to ten male Sprague-Dawley rats (Charle Rivers, Sprague-Dawley, 200-300 grams) were used in these experiments. Rats received a unitlateral intradermal injection (10 ul) of capsaicin (0.1%) superficially in the mid-plantar surface of the hind paw. A successful injection was confirmed by the apperance of a bleb after intraplantar capsaicin administartion. Capsaicin, the pungent ingredient in hot peppers, has been used to produce hyperalgesia (mildly painful sensory stimuli are perceived as highly painful) in humans. When applied topically or injected into the skin, capsaicin produces burning pain, hyperalgesia to heat within the immediate vicinity of capsaicin application, and mechanical hyperalgesia within a large sorrounding (Hohmann AG, et al.). On the rat hind paw, there are no major subjective behaviour or clinical observations such as marked redness, limping, chronic licking and swelling associated with this model except for the immediate bleb formation of the given agent on the plantar surface right after the injection and as reported in the literature, short term tactile allodynia, extreme thermal […] which persist for one week.
Allodynia Assessment: Rats were placed in Plexiglas cages positioned over an elevated wire mesh platform and habituated to the testing environment for 15 to 25 min before testing. Tactile allodynia was assessed using a single von frey filament (5.18) with a bending force of 10 grams (Dixon). Tactile allodynia refers to a nocifensive behavior elicited by a light touch or innocuous (here, mechanical) stimulus and was operationally defined as a lowering of the threshold for paw withdrawal from punctate mechanical stimulation (Hohmann AG, et al.). The filaments were positioned in contact with the hind paw for a duration of 5 s or until a withdrawal response occurred and repeated 10 consecutive times. This procedure was repeated three times to obtain a total of thirty responses and then averaged. Contralateral testing was also done; no capsaicin was given. Data are presented as paw withdrawl frequency (%). * indicates significant difference (P<0.05) relative to vehicle-treated rats.

[4] = system: ryanodine receptor-channel complex; conditions: See Biochemistry 2001, 40, 531-542; cited from earlier work
[5] = system: rats with ligated L5 and L6 spinal nerves; assay: Spinal nerve (L5/L6) ligation model of chronic pain, tactile allodynia by von Frey hairs; format: in vivo, rat; conditions: compared to a saline solution, 30 minutes after drug administration
[6] = system: NMDA-induced allodynia in mice; assay: NMDA model of transient allodynia; format: in vivo; conditions: maximum score 16
Procedure: as §1

Question: What does the source list for O=C1CN(N=Cc2ccc(-c3ccc([N+](=O)[O-])cc3)o2)C(=O)N1 [Dantrolene, 1-[[5-(p-Nitrophenyl)furfurylidene]amino]hydantoin]?
Answer: HA % vehicle (Sprague-Dawley rats): 82.4%; TD % vehicle (Sprague-Dawley rats): 59.4%; HA (horizontal activity) (Sprague-Dawley rats; five-minute period): 1125.6 ± 114.5; TD (total distance) (Sprague-Dawley rats; five-minute period): 290 ± 48.4; Mean pain score ([1]; PE 100 ng/kg + Dantrolene 3 mg/kg): 9.4 ± 1.6; Mean pain score ([1]; PE 100 ng/kg + Dantrolene 10 mg/kg): 6.5 ± 1.2*; Mean time on bar (rats; 3 mg/kg IP): 74.33 ± 7.47; Mean time on bar (rats; 10 mg/kg IP): 79.67 ± 5.43; Mean time on bar (rats; 20 mg/kg IP): 37.67 ± 10.4*; Mean pain score ([2]; Sulprostone 300 ng/kg + Dantrolene 3 mg/kg, maximum score 16): 12.6 ± 1.5; Mean pain score ([2]; Sulprostone 300 ng/kg + Dantrolene 10 mg/kg, maximum score 16): 9.5 ± 1.9*; Mean pain score ([2]; Sulprostone 300 ng/kg + Dantrolene 20 mg/kg, maximum score 16): 4.8 ± 0.9*; paw withdrawl frequency ([3]; Injected paw, 15 min after capsaicin, dantrolene 3 mg/kg IP 30 minutes before capsaicin): 36 ± 3.7%; paw withdrawl frequency ([3]; Injected paw, 30 min after capsaicin, dantrolene 3 mg/kg IP 30 minutes before capsaicin): 8 ± 1.7 * %; paw withdrawl frequency ([3]; Injected paw, 60 min after capsaicin, dantrolene 3 mg/kg IP 30 minutes before capsaicin): 7 ± 2.1%; paw withdrawl frequency ([3]; Injected paw, Baseline before Caps., dantrolene 3 mg/kg IP): 7 ± 0.9%; paw withdrawl frequency ([3]; Uninjected paw, 15 min., dantrolene 3 mg/kg IP): 5 ± 1.1%; paw withdrawl frequency ([3]; Uninjected paw, 30 min., dantrolene 3 mg/kg IP): 2 ± 1.1%; paw withdrawl frequency ([3]; Uninjected paw, 60 min., dantrolene 3 mg/kg IP): 3 ± 1.3%; paw withdrawl frequency ([3]; Uninjected paw, Baseline, dantrolene 3 mg/kg IP): 5 ± 1%; action on ryanodine receptor-channel complex [4]: antagonist of the ryanodine receptor-channel complex; reversal of allodynic pain (tactile allodynia) ([5]; i.p. 300 ng/kg): reverses the allodynic pain; reversal of allodynic pain (tactile allodynia) ([5]; i.p. 3000 ng/kg): reverses the allodynic pain; reversal of allodynic pain (tactile allodynia) ([5]; i.p. 100 mg/kg): reverses the allodynic pain; reversal of allodynic pain (tactile allodynia) ([5]; i.p. dose of 100 ng/kg): reverses the allodynic pain; Mean pain score ([6]; NMDA 100 ng + Dantrolene 3 mg/kg): 9.3 ± 0.8*; Mean pain score ([6]; NMDA 100 ng + Dantrolene 10 mg/kg): 7.0 ± 1.0*

Question: Which Mean pain score ([6]; NMDA 100 ng intrathecal alone) does the source give for CN[C@H](CC(=O)O)C(=O)O [NMDA] here?
Answer: 14.2 ± 1.1

Question: For CNC[C@H](O)c1cccc(O)c1 [PE, phenylephrine], which Mean pain score ([1]; PE 100 ng/kg alone) is on record?
Answer: 11.3 ± 0.9

Question: With CS(=O)(=O)NC(=O)CCC/C=C\C[C@H]1C(=O)C[C@@H](O)[C@@H]1/C=C/[C@@H](O)COc1ccccc1 [Sulprostone] as the molecule, how does the Mean pain score ([2]; Sulprostone (I.P) 300 ng/kg alone, total score, maximum 16) read?
Answer: 14.0 ± 0.5
